{"source": "patent US20210244791A1", "about": "“APPLICATION OF PEDF-DERIVED SHORT PEPTIDES IN TENDON HEALING” (BRIM Biotechnology, Inc., priority 2018, published 2021)", "key": {"cyclin D1": {"test_system": "cyclin D1", "test": "Western blot analysis of cyclin D1 expression in TSPC", "format": "cell-based, rabbit", "settings": "TSPC treated 24 h; compared with solvent-treated cells; normalized to β-actin", "experimental": "Primary rabbit TSPC were treated with 10NM 29-mer or its variants for 24 h. Representative blots (A) and densitometric analysis with the SD (B) from three independent experiments are shown. Cyclin D1 expression was normalized to ([…]. *P<0.01 vs. solvent-treated cells. ^#P<0.05 vs. 29-mer-treated cells.\nAchilles tendons from New Zealand White rabbits (6-8 months old, 3.0-4.0 kg) were used in this study. Achilles tendons were washed two times with sterile phosphate-buffered saline (PBS) containing 50 μg/ml gentamicin. The tendon and tendon sheath were cut into small pieces (1-2 mm^3). Each 100 mg of fragment was then digested in a solution containing 3 mg/ml of type I collagenase and 4 mg/ml of dispase in 1 ml balance salt solution (BSS; Alcone) at 37° C. for 4 hours. The digested tissues were washed three times with PBS and collected by centrifugation (800 g for 10 min). The digested tissues were placed in tissue-culture plates (Falcon Labware; NJ, USA) and resuspended in high-glucose DMEM supplemented with 10% FBS and 50 μg/ml gentamycin, and maintained at 37° C. with 5% CO2. After 5 days, the medium was changed to remove the loosened tissue residues. Subsequently, tendon cells were incubated with 10% FBS medium for 2 days, and then cultured with a basal medium (2% FBS, 1% ITSE, 300 μg/ml L-glutamine, 1% antibiotic-antimicotic solutions) for further 10 days. Culture medium was changed every 3 days. For passage, tendon cells were harvested with 0.25% trypsin/EDTA, cell counting by haemocytometer, approximately 5×10^3 cells were seeded in each well of a 96-well cell culture plate or 2×10^5 cells were seeded in each well of a 6-well cell culture plate for 24 h. These expanded tendon cells were then treated with 10 μM 29-mer or its variants in fresh basal medium for further 24 h and subjected to cell proliferation assay and western blot analysis, respectively.\nCell lysis, SDS-PAGE, and antibodies used for immunoblotting were performed as described (Ho et al., 15-deoxy-Delta(12,14)-prostaglandin J2 induces vascular endothelial cell apoptosis through the sequential activation of MAPKS and p53. J Biol. Chem., 2008; 283(44): 30273-30288). The band intensity in immunoblot was evaluated with a Model GS-700 imaging densitometer (Bio-Rad Laboratories, Hercules, Calif.) and analyzed using Labworks 4.0 software.\nHowever, the 29-mer effect on cyclin D1 protein induction was almost abolished by alanine/glycine replacement at residue S93, A96, Q98, 1103, 1104 and R106, respectively (1.3±0.1, 1.5±0.3, 1.3±0.1, 0.9±0.1, 1.3±0.2, and 1.0±0.3). […] The data also imply that the PDSP at positions Ser93, Ala96, Gln98, Ile103, Ile104, and Arg106 are important for sustaining the PDSP effect on induction of TSPC proliferation."}, "injured Achilles tendon": {"test_system": "injured Achilles tendon", "test": "Rat model of Achilles tendon injury, histology (H&E) and histopathological score", "format": "in vivo", "settings": "1 week postoperative", "source_text": "Representative micrographs of the histopathological analysis by H&E staining. H&E-stained sections in higher magnification show uninjured tendon tissue with a relative scarcity of cells among the collagen fibers.\n(A) Representative H&E-stained longitudinal sections in higher magnification show the nuclei morphologies in uninjured tendon tissue and injured tendon treated with vehicle/alginate and 29-mer/alginate for 1 week. (B) Histopathological scores. Total scores were determining by fiber structure, fiber arrangement, rounding of the nuclei, resident cell density and inflammation (infiltration of inflammatory cells, neovascularization and fatty deposits). Data are reported as mean±SE. *P<0.0005 versus vehicle/alginate-treated tendon; ^#P<0.05 versus 29-mer/alginate-treated tendon.\n(§1) To investigate the effects of the 29-mer peptide on tendon healing, a rat model of Achilles tendon injury was established as reported by Orhan et al. (The effect of extracorporeal shock waves on a rat model of injury to tendon Achilles. A histological and biomechanical study. J. Bone Joint Surg. Br. 2004;.86(4):.613-618). Adult 10-week-old male Sprague-Dawley rats (initial body weight=312±11 g) were anesthetized by an intraperitoneal injection of xylazine (10 mg/kg). Then, the left tendo Achilles injury was created by full-thickness insertion of an 18-G needle through tendo Achilles 1 cm proximal to the calcaneum attachment site. This created a horizontal wound that was flanked by intact tendon tissue to prevent the retraction of severed ends. The skin incision was closed after the wound was irrigated with sterile saline. Treatments were applied to area around the tendon lesion by subcutaneous injection with 150 μl of alginate gel mixed with 100 μM 29-mer or DMSO vehicle (six rats per experimental condition).\nThe tendon and surrounding soft tissue were dissected. Specimens were fixed in a 4% paraformaldehyde (PFA) solution and then were embedded in paraffin blocks. Sections (5 μm in thickness) were longitudinally cut and stained with hematoxylin and eosin (H&E) or used for immunohistochemical examination. 36 sections per tendon were carefully prepared so as to include the most severely degenerated area. Images were captured using a Nikon Eclipse 80i microscope (Nikon Corporation, Tokyo, Japan) equipped with a Leica DC 500 camera (Leica Microsystems, Wetzlar, Germany). Four sections of each sample containing injured tendon tissues were selected and evaluated by two blinded observers to assess the tendon morphology according to a modified semi-quantitative grading score from 0 to 3 proposed by Chen et al. (Tendon derived stem cells promote platelet-rich plasma healing in collagenase-induced rat Achilles tendinopathy. Cell Physiol. Biochem., 2014; 34(6): 2153-68). The scores analyzed the fiber structure (0-3), fiber arrangement (0-3), rounding of the nuclei (0-3), resident cell density (0-3), and inflammation (0-3; infiltration of inflammatory cells, neovascularization and fatty deposits). According to this grading system, a perfectly normal tendon obtained a score of 0, whereas a score of 15 was assigned to maximally abnormal tendons.\nTo investigate the therapeutic effect of the 29-mer peptide on injured tendon, a rat model of Achilles tendon injury was established by full-thickness insertion of an 18-G needle through the tendon Achilles. We delivered the 29-mer in a 150 μl alginate gel, which releases 90% loaded 29-mer in 5 days as described in a previous protocol (Ho et al., PEDF-derived peptide promotes skeletal muscle regeneration through its mitogenic effect on muscle progenitor cells. Am J Physiol. Cell Physiol. 2015 Aug. 1; 309(3): C159-68)."}, "CD146-positive TSPC": {"test_system": "CD146-positive TSPC", "test": "CD146 immunostaining of TSPC in injured Achilles tendon", "format": "in vivo, rat", "settings": "1 week after wounding; peptide/alginate gel; vehicle/alginate 38.3±7.8", "experimental": "(A) Representative CD146-stained longitudinal sections. (Original magnification×200). (B) The number of CD146-positive TSPC per 200×field of view on injured tendon sections. Data are reported as mean±SE. Total CD146^+ cells were evaluated from 6 sections/tendon specimen, with 3 rats in each group. *P<0.001 versus vehicle/alginate-treated tendon; #p <0.001 versus 29-mer/alginate-treated tendon.\nas §1, with “The skin incision was closed after the wound was irrigated with sterile saline. Treatments were applied to area around the tendon lesion by subcutaneous injection with 150 μl of alginate gel mixed with 100 μM 29-mer or DMSO vehicle (six rats per experimental condition).” left out\nCD146 is one of the TSPC markers. […] To test the mechanism of the 29-mer-induced tendon repair, CD146 immunostaining of TSPC located at injured tendon was measured, at 1 week after wounding. […]"}}, "data": [{"substance": "H105A: 29-mer variant with single alanine alteration at residue 105 (SLGAEQRTESIIARALYYDLISSPDIHGT; UniProt P36955 93-121, looked up, variant H105A)", "values": [{"measurement": "induction of the cyclin D1 protein", "setting": "cyclin D1", "value": "2.7±0.3", "unit": "fold"}, {"measurement": "total histopathological score", "setting": "injured Achilles tendon; peptide/alginate gel, 0 = normal tendon, 15 = maximally abnormal, vehicle/alginate 12.7±0.6", "value": "7.8±0.7"}, {"measurement": "histological appearance of treated tendon (H&E staining)", "setting": "injured Achilles tendon; subcutaneous 150 μl alginate gel with 100 μM peptide", "value": "uniform appearance of well-aligned collagen fibers and no degenerative events similar to the 29-mer treatment"}, {"measurement": "number of CD146-positive TSPC on injured tendon sections", "setting": "CD146-positive TSPC", "value": "88.5±7.8", "unit": "cells per 200× field"}]}]}
